The test system of this assay is NGN3-HA overexpressed in 293T cells. The experiment in a line: Western blot analysis of overexpressed NGN3-HA in 293T cells upon GSK3 inhibitor. The assay is classed as cell-based. The conditions noted are these: HEK293T cells overexpressing NGN3-HA, treated with GSK3β inhibitor; Western blot (FIG. 6b). From the text:
(A) Schematic representation of the proposed mechanism of NGN3 degradation by Fbw7. (B) Western Blot analysis of overexpressed NGN3-HA in 293T cells upon GSK3 inhibitor. (C) Schematic representation of NGN3 GSK3 phosphorylation residues and the different NGN3 phospho-mutant construct generated. (D) NGN3-HA/Fbw7-Flag Immunoprecipitation assay using the different NGN3 constructs indicated in C. (E) Western Blot analysis of NGN3 in cells overexpressing the different NGN3 construct indicated in C. HEK293T cells were cultured in DMEM and 10% FBS. Cells were plated at subconfluence and transfected with Lipofectamine Reagent (Invitrogen) following the manufacturer instructions. HEK293T cells lysates or tissues were homogenized in RIPA lysis buffer supplemented with protease inhibitor (Sigma). Immunoblots were carried out as previously described^4. The gels were transferred to nitrocellulose membranes, and the membranes were immunoblotted with various antibodies as indicated: anti-NGN3, anti-flag, anti-HA, and anti-Myc. The conversion of pancreatic ductal cells into β-cells observed in the RFY mice in vivo could be due to up-regulation of substrates involved in beta cell neogenesis in the adult pancreas. […] To test whether Fbw7 had any effect on NGN3 protein stability (see FIG. 6a), a set of in vitro experiments were conducted. […]

For the compound `Cn1cc(C2=C(c3ccc(Cl)cc3Cl)C(=O)NC2=O)c2ccccc21` [SB216763], the NGN3 protein stability entry was “increased”.

Source of the values: patent US20150322406A1, “METHOD FOR REPROGRAMMING SOMATIC CELLS TO PANCREATIC BETA CELLS” (CANCER RESEARCH TECHNOLOGY LIMITED, priority 2012, published 2015).
